Reference: US10344071B2, “Identification of novel anti-fibrotic peptide in C-terminal region of the MET receptor tyrosine kinase” (MUSC Foundation for Research Development, priority 2015, dated 2019)
Ends that are not written are not given here.

Tests used:
Erk1/2 phosphorylation = test: HGF-induced Erk1/2 phosphorylation in transfected LF and AEC; assay type: cell-based, human; settings: 50 ng/ml for 10 min
Method: (§1) FIG. 4, comprising FIG. 4A through FIG. 4D, depicts the effect of HGF on Ras activation and Erk1/2 phosphorylation in lung fibroblasts (LF) and alveolar epithelial cells (AEC). FIG. 4A depicts HGF-induced Erk1/2 phosphorylation in LF and AEC transfected with MET WT and MET D1398G was determined in cells treated with HGF (50 ng/ml) for 10 min. Cell extracts were immunoblotted with anti-phospho-Erk1/2 or anti-Erk1/2, anti-MET, and anti-β-actin antibodies. FIG. 4B depicts densitometric analysis of phospho-Erk1/2 immunoblots from three independent experiments. FIG. 4C and FIG. 4D depict Ras activity in LF and AEC respectively, transfected with MET WT and MET D1398G treated with and without HGF (50 ng/ml) for 10 min.
The phosphorylation of p42/p44 MAPK isoforms was analyzed using anti-phospho-Erk1/2 and Erk1/2 antibodies in accordance with the manufacturer's instructions (Cell Signaling Technology, Danvers, Mass.). Immunoblots were routinely stripped and reblotted with anti-β-actin antibody (Sigma, St. Louis, Mo.) as a loading control.
To investigate whether the D1398G mutation affects MAPK signaling pathways, the Erk1/2 phosphorylation was examined. Basal and HGF-induced Erk1/2 phosphorylation were more prominent in AEC as compared with LF. […] The basal level of nonphosphorylated Erk1/2 in LF and AEC was not affected either by HGF stimulation or by transfection with D1398G mutation.

Ras = Ras Activity Assay (G-LISA, Ras-GTP); assay type: cell-based, human; settings: 50 ng/ml; LF and AEC transfected with MET WT
Method: as §1
G-LISA Kit (Cytoskeleton Inc., Denver, Colo.) was used to measure endogenous Ras-GTP levels. […] Bound Ras-GTP levels were determined by anti-Ras primary antibody followed by horseradish peroxidase-conjugated secondary antibody. A peroxidase substrate was applied, and the plates were read at 450 nm on a spectrophotometer.
HGF-induced phosphorylation of Erk1/2 is mediated by Ras (Campbell, et al., Oncogene, 1998, 17:1395-413). To investigate whether D1398G mutation affects MET-dependent Ras activation, Ras-GTP in LF and in AEC transfected with MET WT and with MET D1398G was measured.

[1] = tested on: normal LF transfected with MET WT or MET D1398G; test: Collagen, SMA, CTGF in transfected TGFβ-stimulated normal lung fibroblasts, Western blot; assay type: cell-based, human; settings: 48 hours
Method: FIG. 3, comprising FIG. 3A through FIG. 3D, depicts expression of type I collagen, SMA, and CCN2 in normal lung fibroblasts (LF) transfected with MET WT and MET D1398G. Transfected […] lung fibroblasts were serum-starved for 24 hours followed by incubation for 48 hours with recombinant TGFβ (5 ng/ml) and/or HGF (50 ng/ml). FIG. 3A depicts that the cells were collected with lysis buffer and analyzed by Western blot with indicated antibodies including MET as a transfection efficiency control and anti-β-actin antibody as a loading control. FIG. 3B through FIG. 3D depict densitometric analysis of immunoblots for collagen, SMA and CCN2 respectively. Values are the mean and SD from three independent experiments.
Cells were collected and analyzed by immunoblotting as previously described (Bogatkevich et al., J Biol Chem. 2001, 276:45184-45192; Bogatkevich et al., Arthritis Rheum. 2007, 56:3468-3477). Phosphorylation of MET was analyzed using anti-phospho-c-Met [pYpYpY^1230/1234/1235], pY^1349, and pY^1356 antibodies (BioSource International, Inc., Camarillo, Calif.). Total MET was immunobloted using anti-MET (C12) (Santa Cruz Biotechnology, Santa Cruz, Calif.) and anti-MET (25H2) (Cell Signaling, Danvers, Mass.). […]

MET D1398G = molecular target: T1, MET D1398G (Homo sapiens, UniProt P08581, D1380G); test: HGF-induced MET tyrosine phosphorylation in transfected LF and AEC; assay type: cell-based; settings: HGF 50 ng/ml
T1 construct: The wild type (WT) full-length c-MET cDNA in pLXSN; expressed in transfected cells; host or cells: lung fibroblasts (LF) and A549 alveolar epithelial cells, infected with recombinant adenovirus (pAdTrack-CMV/AdEasy)
Method: (§2) FIG. 1, comprising FIG. 1A and FIG. 1B, depicts MET tyrosine phosphorylation in lung fibroblasts (LF) and alveolar epithelial cells (AEC). FIG. 1A depicts a time course of MET WT and MET D1398G tyrosine phosphorylation as determined in LF and AEC incubated with HGF (50 ng/ml) for various time points. Cell extracts were immunoblotted with anti-phospho-MET or anti-MET polyclonal antibodies (see details in Materials and Methods). FIG. 1B depicts quantitative results of densitometric analysis of immunoblots. Values are the mean and SD from three independent experiments.
(§3) Cells were collected and analyzed by immunoblotting as previously described (Bogatkevich et al., J Biol Chem. 2001, 276:45184-45192; Bogatkevich et al., Arthritis Rheum. 2007, 56:3468-3477). Phosphorylation of MET was analyzed using anti-phospho-c-Met [pYpYpY^1230/1234/1235], pY^1349, and pY^1356 antibodies (BioSource International, Inc., Camarillo, Calif.). Total MET was immunobloted using anti-MET (C12) (Santa Cruz Biotechnology, Santa Cruz, Calif.) and anti-MET (25H2) (Cell Signaling, Danvers, Mass.). Anti-type I collagen antibody (Southern Biotechnology, Birmingham, Ala.)), anti-CTGF antibody (Santa Cruz Biotechnology, Santa Cruz, Calif.), and anti-smooth-α-actin antibody (Sigma, St. Louis, Mo.) were also used.
(§4) As an initial approach to evaluate the functional consequences of D1398G mutation, HGF-induced MET autophosphorylation was studied in LF and AEC (A549 cell line) transfected either with MET WT or D1398G mutant. MET tyrosine phosphorylation was assessed using anti-phospho-c-Met[pYpYpY^1230/1234/1235], pY^1349, and pY^1356 antibodies. Treatment with HGF induced rapid phosphorylation of MET WT at tyrosine 1230, 1234, and 1235 in both LF and AEC. Maximal phosphorylation was observed within 5 minutes of HGF treatment and decreased by 20 minutes following HGF treatment (FIG. 1). […] The time course of HGF-induced phosphorylation at tyrosine 1356 in LF resembled tyrosine 1230, 1234, and 1235 phosphorylation with maximal levels observed within 5 minutes of HGF treatment. Tyrosine 1356 phosphorylation in AEC appeared to be stronger than in LF with maximal levels observed within 20 minutes of HGF treatment.

MET WT = molecular target: T2, MET WT (Homo sapiens, UniProt P08581); test: as above; assay type: cell-based; settings: HGF 50 ng/ml
T2 construct: The wild type (WT) full-length c-MET cDNA in pLXSN; expressed in transfected cells; host or cells: lung fibroblasts (LF) and A549 alveolar epithelial cells, infected with recombinant adenovirus (pAdTrack-CMV/AdEasy)
Method: as §2, §3, §4

[2] = tested on: scleroderma LF transfected with MET WT or MET D1398G; test: Collagen, SMA, CTGF in transfected scleroderma lung fibroblasts, Western blot; assay type: cell-based, human; settings: 50 ng/ml for 48 hours
Method: FIG. 2, comprising FIG. 2A and FIG. 2B, depicts Expression of type I collagen, SMA, and CCN2 in scleroderma lung fibroblasts (LF) transfected with MET WT and MET D1398G. FIG. 2A depicts transfected SSc LF were serum-starved for 24 hours followed by incubation for 48 hours with recombinant HGF (50 ng/ml). The cells were collected with lysis buffer and analyzed by Western blot with indicated antibodies including MET as a transfection efficiency control. Anti-β-actin antibody was used as a loading control. FIG. 2B depicts quantitative results of densitometric analysis of immunoblots. Values are the mean and SD from four independent experiments.
as §3, with “used. […]” for “used.”

[3] = tested on: TGFβ-stimulated lung fibroblasts; test: Collagen in TGFβ-stimulated lung fibroblasts, immunoblot; assay type: cell-based; settings: 1 μg/ml for 24 h; TGFβ 5 ng/ml
Method: FIG. 18 depicts M5 peptide inhibits collagen in TGFβ-stimulated lung fibroblasts. Cells were incubated with and without TGFβ (5 ng/ml) and M5 peptide (1 μg/ml) for 24 h and analyzed by immunoblotting using anti-collagen type I antibody. Beta-actin was used as a loading control.
A peptide containing just the M5 sequence (TRPAS (SEQ ID NO: 4)) was generated and was tested for its effect on collagen.

[4] = tested on: bleomycin-induced pulmonary fibrosis; settings: mouse, in vivo
From the text: FIG. 14A depicts representative histologic findings of lung inflammation and fibrosis. […] FIG. 14B depicts a quantitative evaluation of fibrotic changes (Ashcroft scores), n=32 (8 mice per group).
Mice (n=6), C57BL/6 male were used in this study. Mice were maintained in animal quarters specially designated for pathogen-free mice and were provided with food and water ad libitum. Lung injury was induced by intratracheal instillation of bleomycin (2 U/kg in saline) under isoflurane anesthesia. Control mice received same volume of saline. […] Control mice received 10 mg/kg scrambled peptide. Animals were sacrificed in 3 weeks, and lungs were harvested and processed for tissue staining.
Sacrificed mice were subjected to midline thoracotomy. […]
To evaluate the stages of lung fibrosis, multiple sections from each lung were stained with Hematoxylin and eosin (H & E staining) or with trichrome staining for collagen and other extracellular matrix proteins. Fibrosis quantification was performed by using 0 (normal) to 8 (total fibrosis) Ashcroft scale (Ashcroft, et al., J Clin Pathol, 1988, 41:467-470). Morphological changes such as the thickness of alveolar septa, accumulation of vascular component and connective tissue, infiltration of inflammatory cells were analyzed. For histological evaluation each specimens were divided in 10 non-overlapping fields and scored independently. […]

Substance: HGF: recombinant hepatocyte growth factor, ligand of the MET receptor
- HGF-induced Erk1/2 phosphorylation, MET WT compared with MET D1398G cells (Erk1/2 phosphorylation): notably higher
- Erk1/2 phosphorylation (Erk1/2 phosphorylation; LF and AEC transfected with MET WT or MET D1398G): further induced Erk1/2 phosphorylation
- total Ras activity (Ras): significant increase in total Ras activity
- levels of collagen, SMA and CTGF [1]: decreased the levels of collagen, SMA and CTGF
- tyrosine phosphorylation of MET D1398G in contrast to MET WT (MET D1398G; LF and AEC): decreased and delayed
- time of maximal phosphorylation at tyrosine 1356 (MET D1398G; MET D1398G): 1 h
- time of maximal phosphorylation at tyrosine 1356 (MET WT; AEC): ≤ 20 min
- time of maximal phosphorylation at tyrosine 1356 (MET WT; LF): ≤ 5 min
- time of maximal phosphorylation at tyrosine 1230, 1234, and 1235 (MET WT; LF and AEC): ≤ 5 min
- expression of collagen, SMA, and CTGF ([2]; scleroderma LF transfected with MET D1398G): not in LF transfected with mutant MET D1398G
- expression of collagen, SMA, and CTGF ([2]; scleroderma LF transfected with MET WT): reduced expression of collagen, SMA, and CTGF

Substance: TRPAS (M5 Peptide) [C-terminal fragment of the MET receptor]
- level of collagen versus fibroblasts stimulated with TGFβ [3]: reduced level of collagen

Substance: TRPASFWETS [M10]
- cell viability measured by the ATP-dependent assay (cell viability): does not affect cell viability
- lung histology in control mice that received saline and peptide [4]: normal septa, vascular components, and connective tissue
